Where two headings read alike, the source gives them in different places.
Assays:
Format in all cases: cell-based, human
[1] = system: AICD (APP intracellular domain); assay: AICD level by Western blotting in SY5Y-APP^WT cells; conditions: concentration increasing AICD 20-fold vs untreated control, read-out: AICD (C20)
Outline: (§1)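 SH-SY5Y cells stably expressing human wild-type APP695 treated with compounds for 24 h at 37 °C. αCTF and AICD measured by Western blot of lysates (10 µg protein, 12% Bis-Tris gels) as band intensity; C20 is concentration raising these fragments 20-fold over control.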

[2] = system: Aβ1–42 peptide secretion; assay: Aβ1–42 secretion in cell medium by ELISA; conditions: SY5Y-APP^WT cells, 24 h treatment, mean ± SD of at least three experiments in triplicate
Outline: (§2)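 SY5Y-APP^WT cells (SH-SY5Y human neuroblastoma stably expressing human wild-type APP695) were treated with compounds for 24 h in supplemented DMEM at 37 °C. Secreted Aβ1–40 and Aβ1–42 were quantified in the collected, centrifuged conditioned medium by ELISA, in pg/mL.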

[3] = system: αCTF (APP carboxy-terminal fragment); assay: αCTF level by Western blotting in SY5Y-APP^WT cells; conditions: for EC (20-fold increase): concentration increasing αCTF 20-fold vs untreated control, SY5Y-APP^WT cells, read-out: αCTF (C20); for C20 for CTFα and AICD: CTFα and AICD together
Outline: as §1

[4] = system: p62/LC3; assay: Ratio between p62 and LC3 expression levels; conditions: compound at 3 µM, 24 h, SY5Y-APP^wt cells
From the text: Compounds from both series were selected to first determine the potential relationship between the repression of Aβ1–x production and the increased expression of LC3 and p62. […] We then also considered the ratio between the p62 and LC3 expression levels.
Figure 3 Effect of compounds 24, 33, 34, 57, 65, 67, 70, and 71 on the autophagic flux in SY5Y-APP^wt cells. […] Cell lysates were immunolabeled with the following antibodies: p62 (a), LC3 (b), and β-actin. Statistical significance was set at * p < 0.05, ** p < […], *[…], **** p < 0.0001, and ns as not significant.

[5] = in vitro; conditions: human
Outline: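 Cells seeded at 3 × 10^4 per well, attached 24 h, then exposed to drug for 72 h in DMEM with 10% SVF. Viability by MTS colorimetric assay, absorbance at 490 nm.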

[6] = system: Aβ1–40 peptide secretion; assay: Aβ1–40 secretion in cell medium by ELISA
Outline: as §2

[7] = Homo sapiens, SY5Y-APP^WT cells, 24 h treatment, mean ± SD of at least three experiments in triplicate, read-out: Aβ1–40 IC50
[8] = Homo sapiens, Aβ1–40 and Aβ1–42 not distinguished, read-out: IC50 for Aβ secretion (Aβ1–x production)

Compound | EC (20-fold increase) ([1]; Homo sapiens) | IC50 ([2]; Homo sapiens) | EC (20-fold increase) ([3]; Homo sapiens) | p62/LC3 [4] | CC50 at 72 h [5] | IC50 [6, 7] | C20 for CTFα and AICD [3] | IC50 [6, 8] | EC (20-fold increase) [1] | IC50 [2] | EC (20-fold increase) [3] | IC50 ([6]; SY5Y-APP^WT cells, 24 h treatment, mean ± SD of at least three experiments in triplicate, read-out: Aβ1–40 IC50)
CN(C)CCCc1ccc(-c2nn(-c3ccc(CN(C)C)cc3)cc2CN(C)C)cc1 [Compound 24, 3-[4-[4-(Dimethylaminomethyl)-1-[4-(dimethylaminomethyl)phenyl] Pyrazol-3-yl]phenyl]-N,N-dimethyl-propan-1-amine] | 2.2 µM | 2500 ± 200 nM | 1.6 µM | 0.49 | > 100000 nM | 1500 ± 100 nM |  |  |  |  |  | 
Cc1cn(-c2cccc(CO)c2)nc1-c1ccc(CN(C)CCCN(C)C)cc1 [Compound 57, (3-{3-[4-({[3-(Dimethylamino)propyl](methyl)amino}methyl)phenyl]-4-methyl-1H-pyrazol-1-yl}phenyl)methanol] | 8.5 µM | 3500 ± 800 nM | > 10 µM | 0.71 | > 100000 nM | 2900 ± 1000 nM |  |  |  |  |  | 
Cc1cn(-c2cccc(CN3CCN(C)CC3)c2)nc1-c1cccc(CN(C)C)c1 [Compound 65, N,N-dimethyl-1-[3-[4-methyl-1-[3-[(4-methylpiperazin-1-yl)methyl]phenyl]pyrazol-3-yl]phenyl]methanamine] | 2.8 µM | 2100 ± 400 nM | 1.7 µM | 0.63 | > 100000 nM | 2000 ± 700 nM |  |  |  |  |  | 
Cc1cn(-c2cccc(CN(C)C)c2)nc1-c1ccc(CN(C)CCCN(C)C)cc1 [Compound 67, {[4-(1-{3-[(Dimethylamino)methyl]phenyl}-4-methyl-1H-pyrazol-3-yl)phenyl]methyl} [3-(Dimethylamino)propyl]methylamine] | 1.2 µM | 2100 ± 500 nM | 1.4 µM | 0.51 | 12000 nM | 1300 ± 100 nM | around 1 µM | ~1000 nM |  |  |  | 
Cc1cn(-c2cccc(CN(C)C)c2)nc1-c1cccc(CN(C)CCCN(C)C)c1 [Compound 70, N′-[[3-[1-[3-(Dimethylaminomethyl)phenyl]-4-methyl-pyrazol-3-yl]phenyl] Methyl]-N,N,N′-trimethyl-propane-1,3-diamine] | 1.7 µM | 2100 ± 100 nM | 1.3 µM | 0.30 | 51000 nM | 1500 ± 100 nM |  |  |  |  |  | 
Cc1cn(-c2cccc(CN3CCN(C)CC3)c2)nc1-c1cccc(CN(C)CCCN(C)C)c1 [Compound 71, N,N,N′-Trimethyl-N′-[[3-[4-methyl-1-[3-[(4-methylpiperazin-1-yl)methyl]phenyl]pyrazol-3-yl]phenyl]methyl]propane-1,3-diamine] | 1 µM | 1700 ± 100 nM | 0.7 µM | 0.34 | 25000 nM | 1200 ± 100 nM | around 1 µM | ~1000 nM |  |  |  | 
N′-[[4-[4-[3-(Dimethylamino)propyl]-3-[4-[3-(dimethylamino)propyl]phenyl] Pyrazol-1-yl]phenyl]methyl]-N,N,N′-trimethyl-propane-1,3-diamine [Compound 33] |  |  |  | 0.98 |  |  |  |  | 8.9 µM | 9700 ± 1200 nM | 6.1 µM | 9200 ± 400 nM

Reference: PMC9658513, “Discovery of Compounds That Selectively Repress the Amyloidogenic Processing of the Amyloid Precursor Protein: Design, Synthesis and Pharmacological Evaluation of Diphenylpyrazoles” (International Journal of Molecular Sciences, 2022)
